# Laboratory results reported in ChEMBL document CHEMBL3085636, “Further optimization of plakortin pharmacophore: structurally simple 4-oxymethyl-1,2-dioxanes with promising antimalarial activity” (Eur J Med Chem, 2013).
# Legend:
# Plasmodium falciparum [1] = test: Antimalarial activity against chloroquine-sensitive Plasmodium falciparum D10 after 72 hrs by parasite lactate dehydrogenase assay; format: functional, organism-based; conditions: D10, 72 h
# Plasmodium falciparum [2] = test: Antimalarial activity against chloroquine-resistant Plasmodium falciparum W2 after 72 hrs by parasite lactate dehydrogenase assay; format: functional, organism-based; conditions: W2, 72 h
Structure (SMILES),IC50 (Plasmodium falciparum [1]) [µM],IC50 (Plasmodium falciparum [2]) [µM]
COC[C@H]1CC(C)(C)OO[C@@]1(C)OC,> 30,> 30
COC[C@H]1CC(C)(C)OO[C@]1(C)OC,> 30,> 30
CCCCC1(CCCC)C[C@H](COC)[C@](C)(OC)OO1,,1.7
CCCC[C@@]1(C)C[C@H](COC)[C@@](CCCC)(OC)OO1,2.3,1.2
CCCCC1(CCCC)C[C@H](CO)[C@](CCCC)(OC)OO1,4,1.6
CCCC[C@]1(C)C[C@H](COC)[C@@](CCCC)(OC)OO1,4.3,2
CCCC[C@@]1(OC)OOC(C)(C)C[C@@H]1CO,17.2,7.3
CCCC[C@]1(OC)OOC(C)(C)C[C@@H]1COC,> 30,> 30
CCCCC1(CCCC)C[C@H](COC)[C@](CCCC)(OC)OO1,,0.7
CCCC[C@]1(C)C[C@H](CO)[C@](CCCC)(OC)OO1,5.4,1.9
CCCC[C@@]1(C)C[C@H](CO)[C@](CCCC)(OC)OO1,6,2.3
CCCCC1(CCCC)C[C@H](COC)[C@@](C)(OC)OO1,,1.5
CCCC[C@]1(C)C[C@H](COC)[C@](CCCC)(OC)OO1,0.8,0.5
CCCCC1(CCCC)C[C@H](CO)[C@@](CCCC)(OC)OO1,2.4,1
CCCC[C@@]1(C)C[C@H](COC)[C@](CCCC)(OC)OO1,0.9,0.7
CCCCC1(CCCC)C[C@H](COC)[C@@](CCCC)(OC)OO1,,1
CCCC[C@]1(C)C[C@H](CO)[C@@](CCCC)(OC)OO1,> 30,11.2
CCCC[C@@]1(OC)OOC(C)(C)C[C@@H]1COC,8.6,2.8
